Measurements published in patent publication US10407421B2, “Bicyclic aryl monobactam compounds and methods of use thereof for the treatment of bacterial infections” (priority 2016, dated 2019).
Structures can show the parent of a compound that is named as a salt.

Columns and labels:
Type in all cases: cell-based
Settings in all cases: in the presence of β lactamase inhibitor Relebactam 4 μg/mL; 22 hours at 35±2° C.; lowest concentration inhibiting 95% of growth (OD600)
[1] = system: Escherichia coli expressing NDM-1 (CLB30016); experiment: Growth inhibitory concentration (OD600), Escherichia coli CLB30016
Protocol: (§1) Antibiotic Activity: Determination of Growth Inhibitory Concentration
(§2) The concentrations of compounds required to inhibit the growth of various strains of bacteria were determined in an assay that assessed bacterial growth by measuring optical density at 600 nm (OD600). The bacterial strains tested included the clinical strains Escherichia coli expressing NDM-1 (CLB30016), Klebsiella pneumoniae expressing KPC-1 (CL6569), Acinetobacter baumannii expressing TEM-1, AmpC, and Oxa-24/40 (CL6188) and Pseudomonas aeruginosa expressing AmpC (CL5701). All compounds were tested in the presence of a β lactamase inhibitor (BLi, Relebactam) in 384-well microplates. The clinical strains were stored as frozen single use stocks, thawed and diluted into 1.1× cation-adjusted Mueller-Hinton II broth to achieve approximately 2×10^5 CFU/mL. Test compounds were dissolved in DMSO and diluted 1:50 in the assay, resulting in a final concentration range of 100 μM to 0.098 μM. […] At the end of the incubation, absorbance at 600 nm was determined using a spectrophotometer. Inhibition was quantitated by identifying the lowest concentration of test compound that was required to inhibit 95% of the growth of the bacteria. The results for Examples 1-73 are reported in Table I, expressed as the concentration of compound that inhibited 95% of bacterial growth (Minimum Inhibitory Threshold Concentration; MITC95).

[2] = system: Pseudomonas aeruginosa expressing AmpC (CL5701); experiment: Growth inhibitory concentration (OD600), Pseudomonas aeruginosa CL5701
Protocol: as §1, §2

[3] = system: Acinetobacter baumannii expressing TEM-1, AmpC, and Oxa-24/40 (CL6188); experiment: Growth inhibitory concentration (OD600), Acinetobacter baumannii CL6188
Protocol: as §1, §2

[4] = system: Klebsiella pneumoniae expressing KPC-1 (CL6569); experiment: Growth inhibitory concentration (OD600), Klebsiella pneumoniae CL6569
Protocol: as §1, §2

C[n+]1c2ccc(OC[C@H](O/N=C(\C(=O)N[C@@H]3C(=O)N(OS(=O)(=O)[O-])C3(C)C)c3csc(N)n3)C(=O)O)cc2cn1C[C@H](O)CN [Example 51, (S)-3-((Z)-2-(((S)-2-((2-((R)-3-amino-2-hydroxypropyl)-1-methyl-2H-indazol-1-ium-5-yl)oxy)-1-carboxyethoxy)imino)-2-(2-aminothiazol-4-yl)acetamido)-2,2-dimethyl-4-oxoazetidin-1-yl Sulfate]
EC_CLB30016 MITC95 [1]: 25 µM | PA_CL5701 MITC95 [2]: 12.5 µM | AB_CL6188 MITC95 [3]: 6.25 µM | KP_CL6569 MITC95 [4]: 0.78 µM
